± gives the expanded uncertainty stated by the source.

The source of these data is the NIST ThermoML archive (doi:10.1021/je050494l).

The data set in a line: refractive index (Na D-line) (dimensionless). To be noted: 298.2 K, 101.33 kPa, Liquid.

Regarding `CCCCCCCCOS(=O)(=O)[O-].CCn1cc[n+](C)c1` [1-ethyl-3-methylimidazolium octyl sulfate], for the setting “Standard Abbe refractometry”, the refractive index is on record as 1.471 ± 0.0006. `CCCCCCCC[n+]1ccn(C)c1.COCCOCCOS(=O)(=O)[O-]` [1-methyl-3-octylimidazolium 2-(2-methoxyethoxy)ethyl sulfate]: the refractive index was 1.466 ± 0.0009. Take `c1ccccc1` [benzene]: the refractive index is reported as 1.4972 ± 0.0009. Same read-out and setting: then `CCCCCCC` [heptane], with 1.385 ± 0.0009. Turning to `CCCCCCCCCCCCCCCC` [hexadecane], the refractive index is 1.4318 ± 0.0009.
